Reference: patent US20100145266A1, “METHOD FOR LOADING STRUCTURED SURFACES” (priority 2007, published 2010)

Experiments:
physchem = assay: physchem
Experimental: Preferably 1 mg-150 mg, more preferably 10 mg to 90 mg and most preferably 40 mg to 60 mg of paclitaxel are dissolved in one ml of DMSO.

[1] = Stability of paclitaxel depending on pH; type: physicochemical

solubility in anhydrous ethanol (physchem): highly soluble
solubility in dimethyl sulfoxide (DMSO) (physchem): highly soluble
solubility in methanol (physchem): highly soluble
solubility (physchem; organic solvent or mixture): ≤ 150 mg/mL
stability at alkaline pH ([1]; alkaline pH): comparatively instable
stability at a pH between 3 and 5 ([1]; pH between 3 and 5): especially stable
SMILES: CC(=O)O[C@H]1C(=O)[C@@]2(C)[C@H]([C@H](OC(=O)c3ccccc3)[C@]3(O)C[C@H](OC(=O)[C@H](O)[C@@H](NC(=O)c4ccccc4)c4ccccc4)C(C)=C1C3(C)C)[C@]1(OC(C)=O)CO[C@@H]1C[C@@H]2O (relative stereo) [paclitaxel, [2aR-[2a,4,4a,6,9(R*,S*),11,12,12a,12b]]-(benzoylamino)-hydroxybenzene propionic acid 6,12b-bis-(acetyloxy)-12-(benzoyloxy)-2a-3,4,4a,5,6,9,10,11,12,12a,12b-dodecahydro-4,11-dihydroxy-4a,8,13,13-tetramethyl-5-oxo-7,11-methano-1H-cyclodeca[3,4]benz[1,2-b]oxet-9-yl ester)]
